Test results published in ChEMBL document CHEMBL4334500, “Macrocyclic Diterpenoids from Euphorbia helioscopia and Their Potential Anti-inflammatory Activity” (J Nat Prod, 2019).
Activity calls are given as the source filed them. The rule behind the calls is not given here.

Assays:
RAW264.7 [1] = assay: Cytotoxicity against mouse RAW264.7 cells at 6.25 to 100 uM measured after 24 hrs by MTT assay; type: cell-based; conditions: raw264.7, 24 h
RAW264.7 [2] = assay: Anti-inflammatory activity in mouse RAW264.7 cells assessed as inhibition of LPS-stimulated NO production preincubated with LPS and measured after 20 hrs by Griess reagent-based assay; type: functional, cell-based
RAW264.7 [3] = assay: Antiinflammatory activity in mouse RAW264.7 cells assessed as decrease in LPS-induced IL-6 secretion after 24 hrs by ELISA; type: functional, cell-based
RAW264.7 [4] = assay: Antiinflammatory activity in mouse RAW264.7 cells assessed as decrease in LPS-induced TNF-alpha secretion after 24 hrs by ELISA; type: functional, cell-based
RAW264.7 [5] = assay: Antiinflammatory activity in mouse RAW264.7 cells assessed as decrease in LPS-induced IL-6 mRNA expression after 6 to 24 hrs by FQ-PCR analysis; type: functional, cell-based
RAW264.7 [6] = assay: Antiinflammatory activity in mouse RAW264.7 cells assessed as effect on LPS-induced TNF-alpha mRNA expression after 12 to 24 hrs by FQ-PCR analysis; type: functional, cell-based
[7] = target: Transcription factor p65 (Mus musculus) (UniProt Q04207); assay: Inhibition of LPS-induced NF-kappaB p65 translocation in mouse RAW264.7 cells at 3 to 12 uM incubated for 2 hrs by DAPI staining based immunofluorescence assay; type: cell-based
RAW264.7 [8] = assay: Anti-inflammatory activity in mouse RAW264.7 cells assessed as inhibition of LPS-stimulated NO production at 15 uM preincubated with LPS and measured after 20 hrs by Griess reagent-based assay relative to control; type: functional

Transcription factor p65 (Mus musculus), sequence (Q04207 whole entry): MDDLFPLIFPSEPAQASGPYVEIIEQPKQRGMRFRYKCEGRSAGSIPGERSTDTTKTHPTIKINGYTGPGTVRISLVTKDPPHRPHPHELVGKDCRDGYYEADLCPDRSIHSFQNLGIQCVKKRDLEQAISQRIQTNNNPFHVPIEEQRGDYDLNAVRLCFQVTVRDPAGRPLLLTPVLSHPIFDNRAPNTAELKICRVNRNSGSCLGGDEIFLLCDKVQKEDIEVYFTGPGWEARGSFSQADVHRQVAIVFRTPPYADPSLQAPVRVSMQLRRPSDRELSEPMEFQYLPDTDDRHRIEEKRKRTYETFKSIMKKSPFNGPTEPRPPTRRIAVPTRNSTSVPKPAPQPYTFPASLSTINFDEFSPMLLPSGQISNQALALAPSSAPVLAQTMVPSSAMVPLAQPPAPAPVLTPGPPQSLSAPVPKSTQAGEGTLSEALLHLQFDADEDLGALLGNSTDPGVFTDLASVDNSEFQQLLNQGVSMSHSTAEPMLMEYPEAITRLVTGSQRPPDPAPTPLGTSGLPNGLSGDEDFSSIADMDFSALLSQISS

Compound | Activity (RAW264.7 [1]) | inhibition (RAW264.7 [2]) | further results
CC(=O)O[C@@H]1[C@@H](C)/C=C/C(C)(C)C(=O)C[C@@H](OC(C)=O)/C(C)=C/[C@H]2[C@@H](OC(=O)c3ccccc3)[C@@H](C)C[C@]12OC(C)=O | Non-Toxic | inactive | –
CC(=O)O[C@]12C[C@H](C)[C@H](OC(=O)c3ccccc3)[C@@H]1/C=C(\C)[C@H](OC(=O)c1ccccc1)CC(=O)C(C)(C)/C=C/[C@@H](C)C2=O | Non-Toxic | inactive | –
CC(=O)O[C@@H]1[C@H](C)/C=C/C(C)(C)C(=O)C[C@@H](OC(=O)c2ccccc2)/C(C)=C/[C@H]2[C@@H](OC(=O)c3ccccc3)[C@H](C)C[C@]12OC(C)=O [EUPHOSCOPIN C] | Non-Toxic | inactive | –
CC(=O)O[C@]12C[C@@H](C)[C@H](OC(=O)c3ccccc3)[C@@H]1/C=C(\C)[C@H](O)CC(=O)C(C)(C)C/C=C(\C)C2=O | Non-Toxic | inactive | –
CC(=O)O[C@@H]1[C@H](C)/C=C/C(C)(C)C(=O)C[C@@H](O)/C(C)=C/[C@H]2[C@@H](OC(=O)c3ccccc3)[C@H](C)C[C@]12OC(C)=O | Non-Toxic | inactive | –
CC(=O)O[C@@H]1[C@H](C)/C=C/C(C)(C)C(=O)CC/C(C)=C/[C@H]2[C@@H](OC(=O)c3ccccc3)[C@H](C)C[C@]12OC(C)=O | Non-Toxic | inactive | –
CC(=O)O[C@@H]1[C@@H](C)/C=C/C(C)(C)C(=O)C[C@@H](O)/C(C)=C/[C@H]2[C@@H](OC(=O)c3ccccc3)[C@H](C)C[C@]12OC(C)=O | Non-Toxic | inactive | –
CC(=O)O[C@@H]1[C@@H](C)[C@H](C=C(C)C)C(=O)C[C@@H](OC(C)=O)/C(C)=C/[C@H]2[C@@H](OC(=O)c3ccccc3)[C@H](C)C[C@]12OC(C)=O | Non-Toxic | – | IC50 (RAW264.7 [2]): 7.4 µM; Activity (RAW264.7 [3]): Dose-dependent effect; Activity (RAW264.7 [4]): Dose-dependent effect; Activity (RAW264.7 [5]): Dose-dependent effect; Activity (RAW264.7 [6]): inactive; inhibition [7]: Active
CC(=O)O[C@]12C[C@@H](C)[C@H](OC(=O)c3ccccc3)[C@@H]1/C=C(\C)C(=O)CC(=O)C(C)(C)C/C=C(\C)C2=O | Non-Toxic | inactive | –
C[C@@H]1C[C@H]2[C@@H]3CCC4=CC(=O)C=C[C@]4(C)[C@@]3(F)[C@@H](O)C[C@]2(C)[C@@]1(O)C(=O)CO [DEXAMETHASONE] | – | – | inhibition at 15 µM (RAW264.7 [8]): 34.2%
COc1cc(/C=C/c2ccccc2)c(C(=O)O)c(O)c1CC=C(C)C | – | – | inhibition at 15 µM (RAW264.7 [8]): 30.2%
CC(=O)O[C@@H]1[C@@H](C)/C=C/C(C)(C)C(=O)C[C@@H](OC(C)=O)/C(C)=C/[C@H]2[C@@H](OC(=O)c3ccccc3)[C@H](C)C[C@]12OC(C)=O | Non-Toxic | inactive | –
CC(=O)O[C@]12C[C@@H](C)[C@H](OC(=O)c3ccccc3)[C@@H]1/C=C(\C)[C@H](OC(=O)c1ccccc1)CC(=O)C(C)(C)/C=C/[C@@H](C)C2=O | Non-Toxic | inactive | –
